The results in this text go back to paper PMC11540844, “Enhancing transcription–replication conflict targets ecDNA-positive cancers” (Nature, 2024).

Like-named read-outs stand apart in the source and are kept apart here.

One assay deals with COLO320HSR cells. Description: Cell viability / CTG proliferation (CellTiter-Glo). In kind it is cell-based, human. The conditions noted are these: Homo sapiens, COLO-320-HSR; Extended Data Fig. 8. As to the method:
(§1) Cell viability assay was performed using CellTiter-Glo (Promega, catalgoue no. G8461) as previously described. Briefly, cells were seeded into a 384-well plate one day before adding inhibitors. Equal volumes of vehicles or drugs diluted at indicated concentration were added into each well the next day, and the cells were incubated for three days. On the third day, after equilibrating plate and CellTiter-Glo reagent at room temperature for 30 min, reagent was added into each well and incubated for 15 min at room temperature. Luminescence was measured using a Synergy 2 microplate reader. Four biological replicates were performed for each condition. Data analysis was performed with GraphPad Prism (v.9.1.0).
In general terms: ATP-based viability assays read luminescence as a measure of living cells.

The next assay deals with COLO320DM cells. Description: Cell viability / CTG proliferation (CellTiter-Glo). The format is cell-based, human. The settings on record: for IC50: Homo sapiens, COLO 320DM. As to the method:
as §1

A further assay relates to GBM39ec cells. The assay can be described thus: Cell viability (CellTiter-Glo). The format is cell-based, human. The settings on record: Homo sapiens; Extended Data Fig. 8. As to the method:
as §1

Another assay deals with GBM39HSR cells. The assay can be described thus: Cell viability (CellTiter-Glo). The format is cell-based, human. The conditions noted are these: Homo sapiens; Extended Data Fig. 8. As to the method: as §1
The test system of another assay is SNU16 cells. Description: Cell viability (CellTiter-Glo). The conditions noted are these: Homo sapiens, SNU-16; Extended Data Fig. 8; read-out: IC50 SNU16. In kind it is cell-based, human. How it is done: as §1, with “(v.9.1.0). […]” for “(v.9.1.0).”
The test system of assay [1] is pRNAPII S2/S4 in COLO320DM and COLO320HSR cells. Description: Active RNA polymerase II IF. In kind it is cell-based, human. The conditions noted are these: triptolide treatment. As to the method:
(§2) Coverslips were coated with 100 µg ml^−^1 poly-L-lysine overnight or 10 µg ml^−^1 laminin for 1 h at 37 °C before seeding cells. Asynchronized cells were seeded onto slides and subject to different treatment. Where indicated, EdU was added to each well at 10 µg ml^−^1 30 min before collecting samples. IF and dual-IF DNA FISH staining were performed as described before. Briefly, slides were fixed with ice-cold 4% paraformaldehyde (PFA) for 15 min, followed by permeabilization with 0.5% Triton X-100 in PBS for 15 min at room temperature. Samples were blocked with 3% BSA in PBS for 1 h at room temperature before incubation with primary antibody diluted in blocking buffer at 4 °C overnight. Dilution ratio for first antibodies was as follows: γH2Ax, 1:500; pRPA2-S33, 1:1,000; pCHK1S345, 1:250; 53BP1, 1:500; cyclin A, 1:100; pRNAPII S2/S4, 1:1,000. […]
(§3) Image analysis and quantification were performed using the open-source software CellProfiler (v.4.2.1). For foci number analysis, DAPI staining, IF staining and DNA FISH channel were analysed through automatic thresholding and segmentation to cell nuclei, pRPA2S33/γH2AX foci and DNA FISH foci respectively. […] For fluorescence intensity measurement, nuclei were called based on DAPI channel through automatic thresholding and segmentation; mean fluorescence intensity was retrieved by measuring mean fluorescence intensity within each nucleus.

Assay [2] deals with pRPA2-S33 foci in COLO320DM cells. Description: pRPA2-S33 IF (replication stress). The format is cell-based, human. As to the method:
as §2, §3

In assay [3] the test system is pRPA2-S33 foci in COLO320HSR cells. Description: pRPA2-S33 IF (replication stress). In kind it is cell-based, human. How it is done:
as §2, §3

Assay [4] deals with ssDNA on ecDNA amplicon in COLO320DM and COLO320HSR cells. The assay can be described thus: KAS-seq (ssDNA mapping). The settings on record: triptolide treatment. In kind it is cell-based, human. How it is done: KAS-seq experiments were carried out as previously described[12] with modifications. Briefly, cell culture media was supplemented with 5 mM N3-kethoxal (final concentration), and cells were incubated for 10 min at 37 °C in a six-well plate. Genomic DNA was then extracted using the Monarch gDNA Purification Kit (NEB T3010S) following the standard protocol but with elution using 50 µl 25 mM K3BO3 at pH 7.0. Click reaction was carried out by mixing 87.5 µl purified DNA, 2.5 µl 20 mM DBCO-PEG4-biotin (dimethylsulfoxide (DMSO) solution, Sigma, catalogue no. 760749) and 10 µl 10× PBS in a final volume of 100 µl. The reaction was then incubated at 37 °C for 90 min. DNA was purified using AMPure XP beads by adding 50 µl beads per 100 µl reaction, washing beads on a magnetic stand twice with 80% EtOH and eluting in 130 µl 25 mM K3BO3. Purified DNA was then sheared using a Covaris E220 instrument down to around 200–400 bp size. […]
Libraries were sequenced in a paired-end format on an Illumina NextSeq instrument using NextSeq 550 High-Output Kits (2 × 36 cycles). […] Duplicate reads were removed using picard-tools (v.1.99). […]

Assay [5] deals with RS on ecDNA in GBM39ec cells. Description: pRPA2-S33 IF combined with EGFR FISH. The format is cell-based, human. How it is done: as §2, §3
Assay [6] concerns RS on HSR in GBM39HSR cells. Description: pRPA2-S33 IF combined with EGFR FISH. The format is cell-based, human. As to the method: as §2, §3
Another assay has as its system pCHK1-S345 in HT29 cells. The assay can be described thus: AlphaLISA SureFire Ultra p-CHK1 (Ser345) assay in HT29 cells. The format is cell-based. The settings on record: Homo sapiens, HT-29, 16 h, read-out: CHK1 cellular potency AlphaLisa (IC50). As to the method:
Compound activity in cells was measured using an AlphaLISA SureFire Ultra p-CHK1 (Ser345) assay (Perkin Elmer, catalogue no. ALSU-PCHK1-A10K). HT29 cells were cultured in McCoy 5 A medium with 10% FBS and 1% penicillin-streptomycin and seeded to 96-well plates (Corning, catalogue no. 3599). Compounds were serially diluted in DMSO over a 10-point dose range with 3-fold dilution, and compound solution was added to each well containing cells. Plates were centrifuged at 1,000 rpm for 30 s. Plates were incubated at 37 °C for 16 h. Supernatant was removed by flicking the plate against a paper towel. Wells were washed once with PBS solution. To each well was added freshly prepared lysis buffer and plates were agitated on a plate shaker at 400 rpm for 30 min. The 96-well cell plates were centrifuged at 1,500 rpm for 1 min. From each well was transferred 10 µl of the lysates to a 384-well Optiplate (Perkin Elmer, catalogue no. 6007290). To each well was added Acceptor Mix (5 µl) and the plates were sealed and wrapped in foil. Plates were agitated on a plate shaker for 2 min, then incubated at room temperature for 1 h. To each well was added Donor Mix (5 µl) and the plates were sealed and wrapped in foil. Plates were agitated on a plate shaker for 2 min, then incubated at room temperature for 1 h. AlphaLisa signal was read on an EnVision multimode plate reader (Perkin Elmer). […]
(Bead proximity is the source of the signal in Alpha formats.)

Assay [7] has as its system γH2AX in COLO320DM and COLO320HSR cells. Description: γH2AX IF combined with EdU labelling. The format is cell-based, human. The conditions noted are these: XL413 combined with CHIR-124. As to the method: as §2, §3
The mark [8] stands for this setting: Extended Data Fig. 8, read-out: IC50 COLO320DM.

On to `COc1cc2nc(-c3cc(F)ccc3O)nc(N[C@@H]3CNC[C@H]3C(C)(C)O)c2cc1OC` [CCT241533], for which the IC50 with COLO320HSR cells came to 4.89 µM; in the assay on COLO320DM cells (setting [8]), 3.73 µM. Further, in the assay on COLO320DM cells (COLO320DM vs COLO320HSR viability, Extended Data Fig. 8a), the “differential inhibitory effect between ecDNA+ and ecDNA− isogenic cell lines” value is reported as “no differential inhibitory effect”.

`COc1cccc(OCCCN)c1-c1cc(Nc2cnc(C#N)cn2)n[nH]1` [Ly2606368]: the IC50 in the assay on COLO320HSR cells was determined as 0.0781 µM; in the assay with COLO320DM cells (setting [8]), 0.0341 µM; in the assay on GBM39ec cells it was 0.0488 µM; in the assay on GBM39HSR cells it was 0.0661 µM; with SNU16 cells, 0.00848 µM.

With `CC(C)[C@]12O[C@H]1[C@@H]1O[C@]13[C@]1(O[C@H]1C[C@H]1C4=C(CC[C@@]13C)C(=O)OC4)[C@@H]2O` [triptolide], the “transcriptional activity (active RNA polymerase II by IF)” value in [1] is “significantly decreased”. The pRPA2-S33 foci entry is reported as “significantly decreased” in assay [2] and “negligible effect” in assay [3]. Moreover, the “ssDNA signals across the ecDNA amplicon (KAS-seq)” value in assay [4] was “drastic reduction”. Also, the “RS on ecDNA (pRPA2-S33 IF and EGFR FISH)” value in assay [5] is “significantly decreased”. Further, the “RS on HSR (pRPA2-S33 IF and EGFR FISH)” value in [6] is reported as “no obvious difference”.

Regarding `N#Cc1cnc(Nc2cc(NC[C@H]3CNCCO3)c(C(F)(F)F)cn2)cn1` [SRA737], the IC50 in the assay with COLO320HSR cells came out at 24.7 µM; in the assay with COLO320DM cells (COLO320DM cells, read-out: CTG proliferation ecDNA+ (IC50)), 1.01 µM; in the assay on COLO320DM cells (setting [8]), 1.11 µM; in the assay with pCHK1-S345 in HT29 cells, 1.5 µM.

In the case of `O=c1[nH]c(C2CCCN2)nc2c1oc1ccc(Cl)cc12` (stereo not shown) [XL413], the “effect on DNA damage induced by CHK1i (γH2AX IF)” value in assay [7] is on record as “partially blocked”.
